In PubChem BioAssay AID328 (DTP/NCI, 2004) one finds T/C data, which are given here for eleven compounds.

This assay deals with BDF1 mice, P388 leukemia ip, median survival T/C. As to the kind of experiment: NCI In Vivo Anticancer Drug Screen. Data for tumor model P388 Leukemia (intraperitoneal) in B6D2F1 (BDF1) mice. The note with it: endpoint: median survival time, higher = longer survival. An outline of the steps:
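Survival ratio, drug arm over vehicle arm, in mice with a transplanted tumour.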

[1] abbreviates: dose: 50.0 mg/kg/injection, schedule: Q01DX009 (ip), vehicle: saline with Tween-80.
Where [2] appears, read: dose: 100.0 mg/kg/injection, schedule: Q01DX009 (ip), vehicle: saline with Tween-80.
Where [3] appears, read: dose: 100.0 mg/kg/injection, schedule: Q04DX003 (ip), vehicle: saline.
The mark [4] stands for this setting: dose: 200.0 mg/kg/injection, schedule: Q04DX003 (ip), vehicle: saline.
The mark [5] stands for this setting: dose: 400.0 mg/kg/injection, schedule: Q04DX003 (ip), vehicle: saline.
Where [6] appears, read: dose: 6.25 mg/kg/injection, schedule: Q01DX009 (ip), vehicle: Klucel (hydroxypropylcellulose) (HPC).
The mark [7] stands for this setting: dose: 12.5 mg/kg/injection, schedule: Q01DX009 (ip), vehicle: Klucel (hydroxypropylcellulose) (HPC).
The mark [8] stands for this setting: dose: 25.0 mg/kg/injection, schedule: Q01DX009 (ip), vehicle: Klucel (hydroxypropylcellulose) (HPC).
[9] abbreviates: dose: 50.0 mg/kg/injection, schedule: Q01DX009 (ip), vehicle: Klucel (hydroxypropylcellulose) (HPC).
Setting [10] is: dose: 25.0 mg/kg/injection, schedule: Q04DX003 (ip), vehicle: saline.

Several values for one entry are separate records, joined by “and”; a condition that tells them apart may be missing. Identical values can stand only once. Inconclusive results and toxic doses are left out.

As for `COc1ccc(CC2C(=O)NC(C)C(=O)N(C)C3Cc4ccc(cc4)Oc4cc(ccc4O)CC(C(=O)NC(C)C(=O)NC(C)C(=O)N2C)N(C)C3=O)cc1` (configuration not stated), the T/C reads like this: (dose: 0.04 mg/kg/injection, schedule: Q01DX009 (ip), vehicle: saline) 163 % of control; (dose: 0.07 mg/kg/injection, schedule: Q01DX009 (ip), vehicle: saline) 181 % of control; (dose: 0.11 mg/kg/injection, schedule: Q01DX009 (ip), vehicle: saline with Tween-80) 196 % of control; (dose: 0.11 mg/kg/injection, schedule: Q01DX009 (ip), vehicle: saline) 163 % of control; (dose: 0.16 mg/kg/injection, schedule: Q01DX009 (ip), vehicle: saline with Tween-80) 216 % of control; (dose: 0.25 mg/kg/injection, schedule: Q01DX009 (ip), vehicle: saline with Tween-80) 160 % of control and 186 % of control. Also, the T/C reads like this: (dose: 0.5 mg/kg/injection, schedule: Q01DX009 (ip), vehicle: saline with Tween-80) 186 % of control; (dose: 1.0 mg/kg/injection, schedule: Q01DX009 (ip), vehicle: saline with Tween-80) 189 % of control; (dose: 2.0 mg/kg/injection, schedule: Q01DX009 (ip), vehicle: saline with Tween-80) 208 % of control; (dose: 4.32 mg/kg/injection, schedule: Q04DX003 (ip), vehicle: other) 161 % of control and 212 % of control; (dose: 7.2 mg/kg/injection, schedule: Q04DX003 (ip), vehicle: other) 163 % of control and 208 % of control; (dose: 10.0 micrograms/kg/injection, schedule: Q01DX009 (ip), vehicle: saline with Tween-80) 108 % of control. Moreover, the T/C is 108 % of control (dose: 20.0 micrograms/kg/injection, schedule: Q01DX009 (ip), vehicle: saline with Tween-80) and 119 % of control (dose: 40.0 micrograms/kg/injection, schedule: Q01DX009 (ip), vehicle: saline with Tween-80).
Consider `O=[N+]([O-])c1ccc(N2CCCC(n3cccc3)C2)c([N+](=O)[O-])c1` (configuration not stated), for which the T/C runs as follows: under setting [1], 109 % of control; under setting [2], 115 % of control.
In the case of `C/C(=C\C1C/C(=C/CCc2ccoc2)C(=O)O1)CCCc1ccoc1` (configuration not stated), the T/C (dose: 5.0 mg/kg/injection, schedule: Q01DX009 (ip), vehicle: other) is 107 % of control and the T/C (dose: 20.0 mg/kg/injection, schedule: Q01DX009 (ip), vehicle: other) was 106 % of control.
For the compound `S=c1cc(-c2ccc(Cl)cc2)ss1`, the T/C is 123 % of control (dose: 25.0 mg/kg/injection, schedule: Q01DX009 (ip), vehicle: saline); 101 % of control (dose: 50.0 mg/kg/injection, schedule: Q01DX009 (ip), vehicle: saline); 107 % of control (dose: 100.0 mg/kg/injection, schedule: Q01DX009 (ip), vehicle: saline); 107 % of control under setting [3]; 107 % of control (dose: 200.0 mg/kg/injection, schedule: Q01DX009 (ip), vehicle: saline); 110 % of control under setting [4]. Also, the T/C is 123 % of control (dose: 400.0 mg/kg/injection, schedule: Q01DX009 (ip), vehicle: saline) and 100 % of control under setting [5].
With `CC(C)=CCc1c(O)ccc(C(=O)/C=C/c2ccccc2)c1O`, the T/C (dose: 3.12 mg/kg/injection, schedule: Q01DX009 (ip), vehicle: Klucel (hydroxypropylcellulose) (HPC)) was 102 % of control; the T/C under setting [6] is 106 % of control; the T/C under setting [7] was 116 % of control; the T/C under setting [8] is 100 % of control; the T/C under setting [9] is 90 % of control; the T/C (dose: 100.0 mg/kg/injection, schedule: Q01DX009 (ip), vehicle: Klucel (hydroxypropylcellulose) (HPC)) is 90 % of control.
Turning to `CCOC(=O)C[P+](c1ccccc1)(c1ccccc1)c1ccccc1`, the T/C by setting is: (dose: 12.5 mg/kg/injection, schedule: Q04DX003 (ip), vehicle: saline) 102 % of control; under setting [10], 102 % of control; (dose: 50.0 mg/kg/injection, schedule: Q04DX003 (ip), vehicle: saline) 96 % of control.
In the case of `C=C(C)C(=O)NCC(=O)NC(CC(C)C)C(=O)Oc1ccc([N+](=O)[O-])cc1` (configuration not stated), the T/C by setting is: (dose: 25.0 mg/kg/injection, schedule: Q01DX009 (ip), vehicle: saline with Tween-80) 97 % of control; under setting [1], 97 % of control; under setting [2], 90 % of control.
For `CC(C)(COC(=O)c1cc(Br)ccc1Br)NC(=O)c1cc(Br)ccc1Br`, the T/C is 91 % of control under setting [1]; 97 % of control under setting [2]; 97 % of control (dose: 200.0 mg/kg/injection, schedule: Q01DX009 (ip), vehicle: saline with Tween-80).
With `O=CNC(Cc1ccc(N(CCCl)CCCl)cc1)C(=O)O` (configuration not stated), the T/C is 107 % of control (dose: 1.1 mg/kg/injection, schedule: Q01DX009 (ip), vehicle: Klucel (hydroxypropylcellulose) (HPC)); 104 % of control (dose: 1.46 mg/kg/injection, schedule: Q04DX003 (ip), vehicle: saline); 118 % of control (dose: 1.56 mg/kg/injection, schedule: Q01DX009 (ip), vehicle: saline); 107 % of control (dose: 1.7 mg/kg/injection, schedule: Q01DX009 (ip), vehicle: Klucel (hydroxypropylcellulose) (HPC)); 100 % of control (dose: 2.2 mg/kg/injection, schedule: Q04DX003 (ip), vehicle: saline); 104 % of control (dose: 3.13 mg/kg/injection, schedule: Q01DX009 (ip), vehicle: saline). The T/C by setting is: (dose: 3.3 mg/kg/injection, schedule: Q04DX003 (ip), vehicle: saline) 118 % of control; (dose: 5.0 mg/kg/injection, schedule: Q04DX003 (ip), vehicle: saline) 122 % of control; under setting [6], 175 % of control; (dose: 6.25 mg/kg/injection, schedule: Q01DX009 (ip), vehicle: saline) 181 % of control; (dose: 8.3 mg/kg/injection, schedule: Q04DX003 (ip), vehicle: Klucel (hydroxypropylcellulose) (HPC)) 109 % of control; (dose: 11.0 mg/kg/injection, schedule: Q04DX003 (ip), vehicle: saline) 160 % of control. Moreover, the T/C (dose: 12.0 mg/kg/injection, schedule: Q04DX003 (ip), vehicle: Klucel (hydroxypropylcellulose) (HPC)) was 118 % of control; the T/C under setting [7] is 185 % of control; the T/C (dose: 16.0 mg/kg/injection, schedule: Q01DX009 (ip), vehicle: Klucel (hydroxypropylcellulose) (HPC)) was 160 % of control and 200 % of control; the T/C (dose: 16.5 mg/kg/injection, schedule: Q04DX003 (ip), vehicle: saline) was 163 % of control and 169 % of control; the T/C (dose: 23.3 mg/kg/injection, schedule: Q01DX009 (ip), vehicle: Klucel (hydroxypropylcellulose) (HPC)) is 170 % of control; the T/C under setting [8] is 230 % of control and 220 % of control. The T/C is 172 % of control and 200 % of control under setting [10]; 115 % of control (dose: 29.0 mg/kg/injection, schedule: Q04DX003 (ip), vehicle: Klucel (hydroxypropylcellulose) (HPC)); 245 % of control and 195 % of control (dose: 35.0 mg/kg/injection, schedule: Q01DX009 (ip), vehicle: Klucel (hydroxypropylcellulose) (HPC)); 234 % of control and 186 % of control (dose: 37.5 mg/kg/injection, schedule: Q04DX003 (ip), vehicle: saline); 204 % of control (dose: 40.0 mg/kg/injection, schedule: Q04DX003 (ip), vehicle: Klucel (hydroxypropylcellulose) (HPC)); 240 % of control (dose: 44.0 mg/kg/injection, schedule: Q04DX003 (ip), vehicle: Klucel (hydroxypropylcellulose) (HPC)). Moreover, the T/C is 272 % of control under setting [9]; 272 % of control (dose: 60.0 mg/kg/injection, schedule: Q04DX003 (ip), vehicle: Klucel (hydroxypropylcellulose) (HPC)); 280 % of control (dose: 66.0 mg/kg/injection, schedule: Q04DX003 (ip), vehicle: Klucel (hydroxypropylcellulose) (HPC)); 175 % of control (dose: 100.0 mg/kg/injection, schedule: Q04DX003 (ip), vehicle: Klucel (hydroxypropylcellulose) (HPC)); 95 % of control (dose: 100.0 mg/kg/injection, schedule: Q04DX003 (ip), vehicle: saline with Tween-80); 250 % of control (dose: 132.0 mg/kg/injection, schedule: Q04DX003 (ip), vehicle: Klucel (hydroxypropylcellulose) (HPC)). Where the note is “dose: 200.0 mg/kg/injection, schedule: Q04DX003 (ip), vehicle: Klucel (hydroxypropylcellulose) (HPC)”, the T/C was 185 % of control.
`COC(=O)C(C)CN1CC(C)OC(C)C1` (configuration not stated): the T/C was 113 % of control under setting [3], 100 % of control under setting [4] and 100 % of control under setting [5].
With `CN(C)c1ccc(C2N(Cc3ccccc3)CCC3CCCCN32)cc1` (configuration not stated), the T/C was 99 % of control under setting [1] and 92 % of control under setting [2].
